Data as given in patent US6977262B2, “Dihydropyrazolopyridine compounds and pharmaceutical use thereof” (Mitsubishi Pharma Corporation, priority 2001, dated 2005).

melting point	Compound
174 °C	N#CC1=C(c2cccs2)Nc2n[nH]cc2C1c1ccccc1Cl (centres unmarked) [Example 241, 4-(2-Chlorophenyl)-5-cyano-4,7-dihydro-6-(thiophen-2-yl)-2H-pyrazolo[3,4-b]pyridine]
222 °C	CSc1ccccc1C1C(C#N)=C(c2cccs2)Nc2n[nH]cc21 (centres unmarked) [Example 243, 5-Cyano-4,7-dihydro-4-(2-methylthiophenyl)-6-(thiophen-2-yl)-2H-pyrazolo[3,4-b]pyridine]
232 °C	N#CC1=C(c2cccs2)Nc2n[nH]cc2C1c1cccc(Cl)c1Cl (centres unmarked) [Example 247, 5-Cyano-4-(2,3-dichlorophenyl)-4,7-dihydro-6-(thiophen-2-yl)-2H-pyrazolo[3,4-b]pyridine]
246 °C	Cc1ccccc1C1C(C#N)=C(c2ccccc2)Nc2n[nH]cc21 (centres unmarked) [Example 248, 5-Cyano-4,7-dihydro-4-(2-methylphenyl)-6-phenyl-2H-pyrazolo[3,4-b]pyridine]
276 °C	Cc1ccccc1C1C(C#N)=C(c2cccs2)Nc2n[nH]cc21 (centres unmarked) [Example 249, 5-Cyano-4,7-dihydro-4-(2-methylphenyl)-6-(thiophen-2-yl)-2H-pyrazolo[3,4-b]pyridine]
205 to 210 °C (dec.)	N#CC1=C(CO)Nc2n[nH]cc2C1c1ccccc1Cl (centres unmarked) [Example 252, 4-(2-Chlorophenyl)-5-cyano-4,7-dihydro-6-hydroxymethyl-2H-pyrazolo[3,4-b]pyridine]
240 to 243 °C (dec.)	CCOC(=O)/C=C/C1=C(C#N)C(c2ccccc2Cl)c2c[nH]nc2N1 (stereo not drawn) [Example 253, 4-(2-Chlorophenyl)-5-cyano-4,7-dihydro-6-(trans-2-ethoxycarbonylethenyl)-2H-pyrazolo[3,4-b]pyridine]
172 to 174 °C	CCOC(=O)CCC1=C(C#N)C(c2ccccc2Cl)c2c[nH]nc2N1 (centres unmarked) [Example 254, 4-(2-Chlorophenyl)-5-cyano-6-(2-ethoxycarbonylethyl)-4,7-dihydro-2H-pyrazolo[3,4-b]pyridine]
224 °C	CC(C)C1=C(C#N)C(c2ccccc2[N+](=O)[O-])c2c[nH]nc2N1 (centres unmarked) [Example 262, 5-Cyano-4,7-dihydro-6-isopropyl-4-(2-nitrophenyl)-2H-pyrazolo[3,4-b]pyridine]
> 250 °C	CC(C)C1=C(C#N)C(c2cccc(Cl)c2Cl)c2c[nH]nc2N1 (centres unmarked) [Example 263, 5-Cyano-4-(2,3-dichlorophenyl)-4,7-dihydro-6-isopropyl-2H-pyrazolo[3,4-b]pyridine]
> 250 °C	COc1ccccc1C1C(C#N)=C(C(C)C)Nc2n[nH]cc21 (centres unmarked) [Example 265, 5-Cyano-4,7-dihydro-6-isopropyl-4-(2-methoxyphenyl)-2H-pyrazolo[3,4-b]pyridine]
> 250 °C	N#CC1=C(C2CC2)Nc2n[nH]cc2C1c1ccccc1Cl (centres unmarked) [Example 266, 4-(2-Chlorophenyl)-5-cyano-6-cyclopropyl-4,7-dihydro-2H-pyrazolo[3,4-b]pyridine]
> 250 °C	N#CC1=C(C2CC2)Nc2n[nH]cc2C1c1ccccc1Br (centres unmarked) [Example 267, 4-(2-Bromophenyl)-5-cyano-6-cyclopropyl-4,7-dihydro-2H-pyrazolo[3,4-b]pyridine]
200 to 201 °C (dec.)	N#CC1=C(C2CC2)Nc2n[nH]cc2C1c1cccc2nonc12 (centres unmarked) [Example 269, 4-(2,1,3-Benzoxadiazol-4-yl)-5-cyano-6-cyclopropyl-4,7-dihydro-2H-pyrazolo[3,4-b]pyridine]
236 to 238 °C (dec.)	N#CC1=C(C2CC2)Nc2n[nH]cc2C1c1ccccc1[N+](=O)[O-] (centres unmarked) [Example 272, 5-Cyano-6-cyclopropyl-4,7-dihydro-4-(2-nitrophenyl)-2H-pyrazolo[3,4-b]pyridine]

Further lines, the molecule ahead of its results:

Compound	melting point
CCCC1=C(C(=O)OCC)C(c2[nH]cnc2C)c2c[nH]nc2N1 (centres unmarked) [Example 236, Ethyl 4,7-dihydro-4-(4-methyl-1H-imidazol-5-yl)-6-propyl-2H-pyrazolo[3,4-b]pyridine-5-carboxylate]	219 to 220 °C
CCCC1=C(C(=O)OCC)C(c2nccn2C)c2c[nH]nc2N1 (centres unmarked) [Example 237, Ethyl 4,7-dihydro-4-(1-methyl-1H-imidazol-2-yl)-6-propyl-2H-pyrazolo[3,4-b]pyridine-5-carboxylate]	209 °C
CCCC1=C(C(=O)OCC)C(c2cnc[nH]2)c2c[nH]nc2N1 (centres unmarked) [Example 238, Ethyl 4,7-dihydro-4-(1H-imidazol-5-yl)-6-propyl-2H-pyrazolo[3,4-b]pyridine-5-carboxylate]	200 °C
CCCCC1=C(C(=O)OCC)C(c2cccc3nonc23)c2c[nH]nc2N1 (centres unmarked) [Example 239, Ethyl 4-(2,1,3-benzoxadiazol-4-yl)-6-butyl-4,7-dihydro-2H-pyrazolo[3,4-b]pyridine-5-carboxylate]	213 °C
COc1ccccc1C1C(C#N)=C(c2cccs2)Nc2n[nH]cc21 (centres unmarked) [Example 242, 5-Cyano-4,7-dihydro-4-(2-methoxyphenyl)-6-(thiophen-2-yl)-2H-pyrazolo[3,4-b]pyridine]	215 °C
N#CC1=C(c2cccs2)Nc2n[nH]cc2C1c1ccccc1[N+](=O)[O-] (centres unmarked) [Example 244, 5-Cyano-4,7-dihydro-4-(2-nitrophenyl)-6-(thiophen-2-yl)-2H-pyrazolo[3,4-b]pyridine]	165 °C
N#CC1=C(c2cccs2)Nc2n[nH]cc2C1c1cccc2nsnc12 (centres unmarked) [Example 245, 4-(2,1,3-Benzothiadiazol-4-yl)-5-cyano-4,7-dihydro-6-(thiophen-2-yl)-2H-pyrazolo[3,4-b]pyridine]	254 °C
N#CC1=C(c2cccs2)Nc2n[nH]cc2C1c1cccc2ccccc12 (centres unmarked) [Example 246, 5-Cyano-4,7-dihydro-4-(naphthalen-1-yl)-6-(thiophen-2-yl)-2H-pyrazolo[3,4-b]pyridine]	214 °C
N#CC1=C(CO)Nc2n[nH]cc2C1c1cccc2nonc12 (centres unmarked) [Example 257, 4-(2,1,3-Benzoxadiazol-4-yl)-5-cyano-4,7-dihydro-6-hydroxymethyl-2H-pyrazolo[3,4-b]pyridine]	215 to 220 °C (dec.)
CC(C)C1=C(C#N)C(c2cccc(C#N)c2Br)c2c[nH]nc2N1 (centres unmarked) [Example 260, 4-(2-Bromo-3-cyanophenyl)-5-cyano-4,7-dihydro-6-isopropyl-2H-pyrazolo[3,4-b]pyridine]	> 250 °C
CC(C)C1=C(C#N)C(c2cccc3nonc23)c2c[nH]nc2N1 (centres unmarked) [Example 264, 4-(2,1,3-Benzoxadiazol-4-yl)-5-cyano-4,7-dihydro-6-isopropyl-2H-pyrazolo[3,4-b]pyridine]	222 to 223 °C (dec.)
N#CC1=C(c2cccs2)Nc2n[nH]cc2C1c1cccc(C#N)c1Br (centres unmarked) [Example 278, 4-(2-Bromo-3-cyanophenyl)-5-cyano-4,7-dihydro-6-(thiophen-2-yl)-2H-pyrazolo[3,4-b]pyridine]	> 280 °C
CCCC1=C(C#N)C(c2ccccc2Cl)c2cnn(C(=O)OC(C)(C)C)c2N1 (centres unmarked) [Example 281, 1-tert-Butoxycarbonyl-4-(2-chlorophenyl)-5-cyano-4,7-dihydro-6-propyl-1 H-pyrazolo[3,4-b]pyridine]	98 to 102 °C
CCCC1=C(C#N)C(c2ccccc2Cl)c2cn(C(=O)OC(C)(C)C)nc2N1 (centres unmarked) [Example 282, 2-tert-Butoxycarbonyl-4-(2-chlorophenyl)-5-cyano-4,7-dihydro-6-propyl-2H-pyrazolo[3,4-b]pyridine]	175 °C (dec.)
